Results on five substances are retold here after patent US5700446A, “Synthesis of ferrocenyl phenyltropane analogs and their radio-transformation to technetium neuroprobes for mapping monoamine reuptake sites” (Neuro Imaging Technologies, LLC, priority 1996, dated 1997).

The target of one test is T1, dopamine transporter (Rattus norvegicus, UniProt P23977).
T1 construct: crude membrane fraction of homogenates of rat brain corpus striatum (for the dopamine transporter); from tissue; host or cells: rat brain corpus striatum, crude membrane fraction
Kind of test: Radioreceptor binding assay, dopamine transporter ([3H]GBR-12935), rat brain corpus striatum membranes. The settings on record: for Ki: [3H]GBR-12935 0.4 nM, 45 min at 4° C., Tris buffer pH 7.4, rat corpus striatum, ±SEM, read-out: Dopamine Transporter (DAT) (Ki); for DAT/5-HTT Selectivity: ratio of Ki for the dopamine transporter to the Ki for the serotonin transporter.

The target in the next test is T2, serotonin transporter (Rattus norvegicus, UniProt P31652).
T2 construct: rat brain corpus striatum (for the dopamine transporter) or frontoparietal cerebral cortex (for the serotonin and norepinephrine transporters); from tissue; host or cells: rat frontoparietal cerebral cortex, crude membrane fraction
Kind of test: Radioreceptor binding assay, serotonin transporter ([3H]paroxetine), rat frontoparietal cerebral cortex membranes. The note with it: [3H]paroxetine 0.2 nM, 60 min at 20° C., Tris buffer pH 7.4, rat frontoparietal cortex; ±SEM; read-out: Serotonin Transporter (5-HTT) (Ki).

T1 sequence (P23977 whole entry): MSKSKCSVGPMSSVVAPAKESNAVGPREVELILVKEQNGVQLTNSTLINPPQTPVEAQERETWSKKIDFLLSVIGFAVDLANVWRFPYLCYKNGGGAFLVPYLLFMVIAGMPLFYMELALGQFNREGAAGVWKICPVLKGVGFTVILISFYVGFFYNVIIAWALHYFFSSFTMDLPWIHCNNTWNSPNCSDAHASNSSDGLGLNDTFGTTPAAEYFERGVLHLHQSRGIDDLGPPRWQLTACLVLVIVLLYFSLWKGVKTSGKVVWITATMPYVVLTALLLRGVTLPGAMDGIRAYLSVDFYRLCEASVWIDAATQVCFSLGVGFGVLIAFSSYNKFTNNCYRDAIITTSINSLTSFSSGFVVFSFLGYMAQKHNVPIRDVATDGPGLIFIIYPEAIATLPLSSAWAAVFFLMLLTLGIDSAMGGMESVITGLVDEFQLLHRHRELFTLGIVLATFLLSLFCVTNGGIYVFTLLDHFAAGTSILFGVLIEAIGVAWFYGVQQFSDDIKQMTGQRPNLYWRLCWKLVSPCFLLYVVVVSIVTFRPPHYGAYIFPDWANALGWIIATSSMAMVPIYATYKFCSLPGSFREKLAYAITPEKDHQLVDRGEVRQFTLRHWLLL
T2 sequence (P31652 whole entry): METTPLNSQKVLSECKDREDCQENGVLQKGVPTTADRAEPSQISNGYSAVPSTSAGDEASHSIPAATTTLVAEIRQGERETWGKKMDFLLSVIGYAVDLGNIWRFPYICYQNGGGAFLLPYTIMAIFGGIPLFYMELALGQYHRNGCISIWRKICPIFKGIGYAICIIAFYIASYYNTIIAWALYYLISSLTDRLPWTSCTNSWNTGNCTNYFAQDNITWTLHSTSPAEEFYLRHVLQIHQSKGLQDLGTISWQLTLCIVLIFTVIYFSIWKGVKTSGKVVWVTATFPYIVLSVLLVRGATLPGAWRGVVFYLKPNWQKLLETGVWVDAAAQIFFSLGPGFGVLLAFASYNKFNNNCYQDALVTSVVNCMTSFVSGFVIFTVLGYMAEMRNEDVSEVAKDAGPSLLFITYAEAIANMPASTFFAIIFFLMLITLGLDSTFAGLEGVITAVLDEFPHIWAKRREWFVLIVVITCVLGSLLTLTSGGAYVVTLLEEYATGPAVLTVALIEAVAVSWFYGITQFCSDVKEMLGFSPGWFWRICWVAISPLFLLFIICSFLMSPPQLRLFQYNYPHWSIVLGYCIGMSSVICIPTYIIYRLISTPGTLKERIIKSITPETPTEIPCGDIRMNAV

Take “3β-(4-Chlorophenyl)-2β-tricarbonylrheniumcyclopentadienylcarboxymethyl)tropane [RBI-219]”: on dopamine transporter, the Ki (in general, a measure of affinity in units of concentration, obtained from inhibition or displacement) worked out at 4.41 ± 0.76 nM and the “DAT/5-HTT Selectivity” value is on record as 0.37. In addition, on serotonin transporter, the Ki was determined as 11.9 ± 1.7 nM.
“3β-(4-iodophenyl)-2β-(tricarbonylrheniumcyclopentadienylcarboxymethyl)tropane [RBI-211]”: the Ki at dopamine transporter was 7.22 ± 1.06 nM; at serotonin transporter, 34.6 ± 3.4 nM. Also, on dopamine transporter, the “DAT/5-HTT Selectivity” value is on record as 0.21.
As to “N-(tricarbonylmanganesecyclopentadienylbutan-1-one-4-yl)-2β-carbomethoxy-3β-(4-chlorophenyl)nortropane [RBI-233]”, on dopamine transporter, the Ki was 1.67 ± 0.39 nM and the “DAT/5-HTT Selectivity” value was 2. Further, the Ki on serotonin transporter turned out to be 0.84 ± 0.06 nM.
For the substance “N-(tricarbonylrheniumcyclopentadienylbutan-1-one-4-yl)-2β-carbomethoxy-3β-(4-chlorophenyl)nortropane [RBI-235]”, at dopamine transporter, the Ki was found to be 1.29 ± 0.1 nM and the “DAT/5-HTT Selectivity” value is 3.49. Also, the Ki at serotonin transporter came out at 0.37 ± 0.04 nM.
With “N-(tricarbonylrheniumcyclopentadienylcarboxypropyl)-2β-carbomethoxy-3β-(4-chlorophenyl)nortropane [RBI-232]”, the Ki worked out at 2.66 ± 0.33 nM on dopamine transporter and 0.56 ± 0.08 nM on serotonin transporter. For the same substance, on dopamine transporter, the “DAT/5-HTT Selectivity” value was 4.75.
